Source: ChEMBL document CHEMBL5223073, “Andrographolide suppresses cisplatin-induced endothelial hyperpermeability through activation of PI3K/Akt and eNOS -derived nitric oxide” (Bioorg Med Chem, 2020)
Calls of active or inactive are those of the source. No cut-off for these calls is given here.

Experiments:
[1] = target: T1, Nitric oxide synthase 3 (Homo sapiens) (UniProt P29474); assay: Activation of eNOS activity in cisplatin-treated HUVEC cells assessed as increase in eNOS phosphorylation at Ser1177 residue at 30 uM measured after 5 to 60 mins by Western blot analysis; assay type: cell-based; details: filed as activator, time 5-60 min
T1 sequence (whole entry): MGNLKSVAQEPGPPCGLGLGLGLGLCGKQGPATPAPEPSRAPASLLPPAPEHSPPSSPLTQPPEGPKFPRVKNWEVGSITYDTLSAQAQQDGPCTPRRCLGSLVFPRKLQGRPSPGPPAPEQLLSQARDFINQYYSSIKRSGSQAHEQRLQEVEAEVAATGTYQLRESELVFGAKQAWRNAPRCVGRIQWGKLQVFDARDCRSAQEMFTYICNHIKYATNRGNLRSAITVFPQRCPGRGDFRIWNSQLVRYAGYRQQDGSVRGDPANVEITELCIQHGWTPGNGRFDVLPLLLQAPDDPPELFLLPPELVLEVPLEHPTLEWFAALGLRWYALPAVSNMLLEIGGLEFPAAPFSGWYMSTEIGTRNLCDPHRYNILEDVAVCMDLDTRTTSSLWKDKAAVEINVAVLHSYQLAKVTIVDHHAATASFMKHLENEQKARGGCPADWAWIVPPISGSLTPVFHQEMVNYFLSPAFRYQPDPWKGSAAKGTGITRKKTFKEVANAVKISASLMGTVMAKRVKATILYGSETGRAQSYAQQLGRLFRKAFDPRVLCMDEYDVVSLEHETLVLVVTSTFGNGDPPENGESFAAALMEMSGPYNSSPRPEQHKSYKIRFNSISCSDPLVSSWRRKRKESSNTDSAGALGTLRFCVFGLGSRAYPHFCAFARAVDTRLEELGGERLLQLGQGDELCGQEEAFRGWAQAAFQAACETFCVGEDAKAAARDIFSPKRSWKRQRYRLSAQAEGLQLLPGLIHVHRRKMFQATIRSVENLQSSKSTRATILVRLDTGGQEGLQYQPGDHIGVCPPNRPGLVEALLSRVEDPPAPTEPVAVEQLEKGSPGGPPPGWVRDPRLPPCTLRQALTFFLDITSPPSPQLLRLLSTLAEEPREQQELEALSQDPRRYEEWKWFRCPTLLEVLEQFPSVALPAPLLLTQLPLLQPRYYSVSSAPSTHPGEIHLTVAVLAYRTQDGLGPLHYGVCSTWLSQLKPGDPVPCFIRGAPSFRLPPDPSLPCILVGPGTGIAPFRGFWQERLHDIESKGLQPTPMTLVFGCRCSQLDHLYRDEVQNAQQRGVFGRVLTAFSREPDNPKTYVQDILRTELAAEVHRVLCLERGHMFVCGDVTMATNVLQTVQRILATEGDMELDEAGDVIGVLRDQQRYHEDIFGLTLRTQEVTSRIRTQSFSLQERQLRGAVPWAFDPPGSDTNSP

HUVEC [2] = assay: Upregulation of cytosolic p65 level in cisplatin-treated HUVEC cells at 30 uM incubated for 1 hr by Western blot analysis; assay type: functional, cell-based; details: Homo sapiens
HUVEC [3] = assay: Inhibition of cisplatin-induced TRPC1 phosphorylation in [32P] orthophosphate labeled HUVEC cells at 30 uM incubated for 15 mins in presence of cisplatin and PI3K inhibitor, wortmannin by Western blot analysis; assay type: cell-based; details: Homo sapiens
HUVEC [4] = assay: Improvement in cisplatin-induced endothelial monolayer integrity in HUVEC cells assessed as increase in transendothelial electric resistance at 30 uM preincubated with compound in presence of PI3K inhibitor, wortmannin followed by cisplatin stimulation and measured after 45 mins; assay type: functional, cell-based; details: Homo sapiens
HUVEC [5] = assay: Inhibition of cisplatin-induced ICAM-1 mRNA expression in HUVEC cells preincubated for 30 mins followed by cisplatin addition and measured after 24 hrs by RT-PCR analysis; assay type: functional, cell-based; details: Homo sapiens, dose 10-30 µM, time 24.5 hrs
HUVEC [6] = assay: Inhibition of cisplatin-induced PKCalpha translocation in HUVEC cells assessed as reduction in membrane PKCalpha activity at 30 uM incubated for 15 mins in presence of cisplatin by Western blot analysis; assay type: functional, cell-based; details: Homo sapiens
[7] = target: T1, Nitric oxide synthase 3 (Homo sapiens); assay: Activation of eNOS activity in cisplatin-treated HUVEC cells assessed as increase in intracellular cGMP level at 30 uM preincubated with eNOS inhibitor, N(G)-nitro-L-arginine methyl ester followed by compound addition and further incubated for 15 mins by radioimmunoassay; assay type: cell-based
HUVEC [8] = assay: Inhibition of cisplatin-induced TRPC1 phosphorylation in [32P] orthophosphate labeled HUVEC cells at 30 uM incubated for 15 mins in presence of cisplatin by Western blot analysis; assay type: cell-based; details: Homo sapiens
HUVEC [9] = assay: Induction of NO production in cisplatin-treated HUVEC cells assessed as increase in fluorescence signal at 30 uM measured after 4 to 15 mins by DAF-FM dye based analysis; assay type: functional, cell-based; details: Homo sapiens, time 4-15 min
U-937 [10] = assay: Inhibition of cisplatin-induced ICAM1 dependent HUVEC cells adhesion to human U-937 cells at 10 to 30 uM preincubated with HUVEC cells for 4.5 hrs in presence of cisplatin and eNOS inhibitor, N(G)-nitro-L-arginine methyl ester followed by U-937 cell suspension addition and measured after 1 hr by BCECF fluorescent probe based assay; assay type: functional; details: dose 10-30 µM, time 5.5 hrs
HUVEC [11] = assay: Downregulation of cisplatin-induced PKCalpha translocation in HUVEC cells at 30 uM incubated for 15 mins in presence of cisplatin and eNOS inhibitor, N(G)-nitro-L-arginine methyl ester by Western blot analysis; assay type: functional, cell-based; details: Homo sapiens
HUVEC [12] = assay: Effect on total eNOS protein level in cisplatin-treated HUVEC cells at 30 uM measured after 5 to 240 mins by Western blot analysis; assay type: functional, cell-based; details: Homo sapiens, time 5-240 min
HUVEC [13] = assay: Improvement in cisplatin-induced endothelial monolayer integrity in HUVEC cells assessed as reduction in transmembrane movement of albumin at 30 uM preincubated with compound in presence of eNOS inhibitor, N(G)-nitro-L-arginine methyl ester followed by cisplatin stimulation and measured after 2 hrs; assay type: functional, cell-based; details: Homo sapiens
HUVEC [14] = assay: Inhibition of cisplatin-induced ICAM-1 protein expression in HUVEC cells preincubated for 30 mins followed by cisplatin addition and measured after 24 hrs by Western blot analysis; assay type: functional, cell-based; details: Homo sapiens, dose 10-30 µM, time 24.5 hrs
HUVEC [15] = assay: Improvement in cisplatin-induced endothelial monolayer integrity in HUVEC cells assessed as increase in transendothelial electric resistance at 30 uM preincubated with compound followed by cisplatin stimulation and measured after 45 mins; assay type: functional, cell-based; details: Homo sapiens
HUVEC [16] = assay: Induction of NO production in cisplatin-treated HUVEC cells assessed as increase in fluorescence signal at 30 uM preincubated with eNOS inhibitor, N(G)-nitro-L-arginine methyl ester for 3 hrs followed by compound addition and measured immediately by DAF-FM dye based analysis; assay type: functional, cell-based; details: Homo sapiens
HUVEC [17] = assay: Downregulation of cisplatin-induced PKCalpha translocation in HUVEC cells at 30 uM incubated for 15 mins in presence of cisplatin and PI3K inhibitor, wortmannin by Western blot analysis; assay type: functional, cell-based; details: Homo sapiens
U-937 [18] = assay: Inhibition of cisplatin-induced ICAM1 dependent HUVEC cells adhesion to human U-937 cells at 10 to 30 uM preincubated with HUVEC cells for 4.5 hrs in presence of cisplatin followed by U-937 cell suspension addition and measured after 1 hr by BCECF fluorescent probe based assay; assay type: functional; details: dose 10-30 µM, time 5.5 hrs
HUVEC [19] = assay: Downregulation of cisplatin-induced ICAM1 protein expression in HUVEC cells at 30 uM incubated for 1 hr by Western blot analysis; assay type: functional, cell-based; details: Homo sapiens

Question: How did the Activity [1] turn out when `C=C1CC[C@@H]2[C@](C)(CO)[C@H](O)CC[C@@]2(C)[C@@H]1C/C=C1/C(=O)OC[C@H]1O` [ANDROGRAPHOLIDE] was run?
Answer: Active

Question: And the Activity (HUVEC [2])?
Answer: Active

Question: And the inhibition (HUVEC [3])?
Answer: inactive

Question: What about the Activity (HUVEC [4]) of the same molecule?
Answer: inactive

Question: And the inhibition (HUVEC [5])?
Answer: Dose-Dependent Effect

Question: And the inhibition (HUVEC [6])?
Answer: Active

Question: What about the Activity [7] of the same molecule?
Answer: inactive

Question: And the inhibition (HUVEC [8])?
Answer: Active

Question: And the Activity (HUVEC [9])?
Answer: Active

Question: What about the inhibition (U-937 [10]) of the same molecule?
Answer: inactive

Question: What about the Activity (HUVEC [11]) of the same molecule?
Answer: inactive

Question: What about the Activity (HUVEC [12]) of the same molecule?
Answer: inactive

Question: And the Activity (HUVEC [13])?
Answer: inactive

Question: What about the inhibition (HUVEC [14]) of the same molecule?
Answer: Dose-Dependent Effect

Question: What about the Activity (HUVEC [15]) of the same molecule?
Answer: Active

Question: What about the Activity (HUVEC [16]) of the same molecule?
Answer: inactive

Question: And the Activity (HUVEC [17])?
Answer: inactive

Question: What about the inhibition (U-937 [18]) of the same molecule?
Answer: Active

Question: And the Activity (HUVEC [19])?
Answer: Active
